This passage reports IC50 results from patent publication US9012443B2 (Amgen Inc., priority 2011, dated 2015).

The term IC50 denotes the concentration that gives 50% inhibition.

Nav 1.7, sequence (Q15858 whole entry): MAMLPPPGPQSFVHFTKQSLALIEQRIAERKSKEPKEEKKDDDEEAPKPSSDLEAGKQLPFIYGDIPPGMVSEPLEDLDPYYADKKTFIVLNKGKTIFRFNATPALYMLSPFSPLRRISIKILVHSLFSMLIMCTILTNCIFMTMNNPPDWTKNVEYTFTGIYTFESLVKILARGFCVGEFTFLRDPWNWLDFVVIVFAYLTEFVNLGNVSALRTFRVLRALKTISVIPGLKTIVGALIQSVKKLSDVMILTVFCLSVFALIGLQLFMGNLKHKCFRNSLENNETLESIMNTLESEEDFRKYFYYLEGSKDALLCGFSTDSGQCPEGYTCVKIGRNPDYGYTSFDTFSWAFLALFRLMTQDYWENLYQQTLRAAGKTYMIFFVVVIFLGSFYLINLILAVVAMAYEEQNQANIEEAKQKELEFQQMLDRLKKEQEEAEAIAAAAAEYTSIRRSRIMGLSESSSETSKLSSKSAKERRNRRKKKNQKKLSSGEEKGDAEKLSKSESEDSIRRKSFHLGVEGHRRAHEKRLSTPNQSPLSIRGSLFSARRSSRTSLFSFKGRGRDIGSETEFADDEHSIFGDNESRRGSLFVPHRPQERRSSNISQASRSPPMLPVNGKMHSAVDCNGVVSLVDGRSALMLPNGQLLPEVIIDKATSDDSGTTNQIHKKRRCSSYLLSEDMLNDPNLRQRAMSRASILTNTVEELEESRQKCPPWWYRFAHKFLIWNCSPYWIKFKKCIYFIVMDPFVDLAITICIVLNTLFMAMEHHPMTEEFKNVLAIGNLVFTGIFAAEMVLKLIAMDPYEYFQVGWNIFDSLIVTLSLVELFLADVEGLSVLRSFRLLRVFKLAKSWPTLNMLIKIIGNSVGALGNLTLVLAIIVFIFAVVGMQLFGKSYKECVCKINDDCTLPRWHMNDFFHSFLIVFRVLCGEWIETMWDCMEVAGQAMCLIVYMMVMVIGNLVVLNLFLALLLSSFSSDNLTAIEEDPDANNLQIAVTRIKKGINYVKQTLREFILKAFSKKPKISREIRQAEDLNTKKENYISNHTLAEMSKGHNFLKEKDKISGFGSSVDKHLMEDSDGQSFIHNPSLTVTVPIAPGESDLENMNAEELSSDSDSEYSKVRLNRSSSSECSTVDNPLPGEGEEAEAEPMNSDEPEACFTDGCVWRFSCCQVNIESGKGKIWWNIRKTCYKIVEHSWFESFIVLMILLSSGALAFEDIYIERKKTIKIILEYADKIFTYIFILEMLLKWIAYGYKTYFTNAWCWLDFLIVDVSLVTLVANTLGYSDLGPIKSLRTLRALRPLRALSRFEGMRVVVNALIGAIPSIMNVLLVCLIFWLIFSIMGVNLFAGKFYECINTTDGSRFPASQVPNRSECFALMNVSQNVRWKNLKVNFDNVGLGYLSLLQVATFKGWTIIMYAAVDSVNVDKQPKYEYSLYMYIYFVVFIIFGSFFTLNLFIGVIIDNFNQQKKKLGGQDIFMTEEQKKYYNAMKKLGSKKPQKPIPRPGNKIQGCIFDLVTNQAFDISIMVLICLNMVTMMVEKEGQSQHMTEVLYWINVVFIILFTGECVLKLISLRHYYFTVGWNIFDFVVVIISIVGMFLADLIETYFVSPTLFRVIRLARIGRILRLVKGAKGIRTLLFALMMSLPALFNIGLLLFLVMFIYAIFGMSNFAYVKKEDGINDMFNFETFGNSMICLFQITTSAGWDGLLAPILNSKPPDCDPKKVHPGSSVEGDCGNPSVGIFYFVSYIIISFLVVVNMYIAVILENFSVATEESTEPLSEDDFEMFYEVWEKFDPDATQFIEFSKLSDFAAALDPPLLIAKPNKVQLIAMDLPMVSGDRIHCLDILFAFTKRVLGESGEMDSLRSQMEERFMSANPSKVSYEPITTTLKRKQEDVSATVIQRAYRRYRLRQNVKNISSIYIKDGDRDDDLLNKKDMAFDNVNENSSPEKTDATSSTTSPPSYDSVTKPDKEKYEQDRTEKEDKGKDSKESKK

The assay addresses Nav 1.7 (Homo sapiens (Human), UniProt Q15858). Briefly: Nav 1.7 in vitro PX assay (PatchXpress whole cell voltage clamp). Format: cell-based. The conditions noted are these: 293 cells, human Nav1.7, partially inactivated state; read-out: Nav1.7 PX IC50 IP. The procedure:
Nav 1.7 In Vitro PX Assay
293 cells stably transfected with human Nav1.7 were recorded in whole cell voltage clamp mode with the PatchXpress automated electrophysiology system (Molecular Devices, LLC, Sunnyvale, Calif.). Compound effects were measured on a partially inactivated state of the sodium channel. Cells were clamped to a holding potential yielding 20 to 50% inactivation. To elicit sodium current, channels were activated by pulsing to −10 mV for 20 msec. […] A single concentration of test compound was applied to cells for a duration of 3 minutes. Peak sodium current was measured at the end of the compound addition period to determine percent inhibition. Three to five cells were tested per concentration, and IC50 curves were fitted to percent inhibition as a function of concentration.
Consider `COc1cc(C(F)(F)F)ccc1-c1nccc2cc(S(=O)(=O)Nc3ncco3)ccc12` [Example 389, 1-(2-METHOXY-4-(TRIFLUOROMETHYL)PHENYL)-N-(OXAZOL-2-YL)ISOQUINOLINE-6-SULFONAMIDE], for which the IC50 came out at 2790 nM.
Next, `COc1cc(C#N)ccc1-c1ncc(F)c2cc(S(=O)(=O)Nc3ncns3)ccc12` [Example 395, 1-(4-CYANO-2-METHOXYPHENYL)-4-FLUORO-N-(1,2,4-THIADIAZOL-5-YL)ISOQUINOLINE-6-SULFONAMIDE]: 761 nM; `COc1ncccc1-c1ncc(F)c2cc(S(=O)(=O)Nc3nccs3)ccc12` [Example 396, 4-FLUORO-1-(2-METHOXYPYRIDIN-3-YL)-N-(THIAZOL-2-YL)ISOQUINOLINE-6-SULFONAMIDE]: 1040 nM; `N#Cc1ccccc1-c1ncc(F)c2cc(S(=O)(=O)Nc3nccs3)ccc12` [Example 397, 1-(2-CYANOPHENYL)-4-FLUORO-N-(THIAZOL-2-YL)ISOQUINOLINE-6-SULFONAMIDE]: 3520 nM.
The same measure for `COc1cc(F)ccc1-c1ncc(C#N)c2cc(S(=O)(=O)Nc3nccs3)ccc12` [Example 399, 4-CYANO-1-(4-FLUORO-2-METHOXYPHENYL)-N-(THIAZOL-2-YL)ISOQUINOLINE-6-SULFONAMIDE]: 682 nM.
The same measure for `COc1ccccc1-c1ncc(C#N)c2cc(S(=O)(=O)Nc3nccs3)ccc12` [Example 400, 4-CYANO-1-(2-METHOXYPHENYL)-N-(THIAZOL-2-YL)ISOQUINOLINE-6-SULFONAMIDE]: 1330 nM; for `N#CCOc1cc(Cl)ccc1-c1nccc2cc(S(=O)(=O)Nc3ncns3)ccc12` [Example 404, 1-(4-CHLORO-2-(CYANOMETHOXY)PHENYL)-N-(1,2,4-THIADIAZOL-5-YL)ISOQUINOLINE-6-SULFONAMIDE 2,2,2-TRIFLUOROACETATE]: 428 nM; for `COc1ncccc1-c1nccc2cc(S(=O)(=O)Nc3nccs3)ccc12` [Example 407, 1-(2-METHOXYPYRIDIN-3-YL)-N-(THIAZOL-2-YL)ISOQUINOLINE-6-SULFONAMIDE]: 4970 nM.
Take `COc1nc(Cl)ccc1-c1nccc2cc(S(=O)(=O)Nc3nccs3)ccc12` [Example 408, 1-(6-CHLORO-2-METHOXYPYRIDIN-3-YL)-N-(THIAZOL-2-YL)ISOQUINOLINE-6-SULFONAMIDE]: the half-maximal inhibitory concentration (IC50) was found to be 986 nM.
Next, `COc1ncc(C(F)(F)F)cc1-c1nccc2cc(S(=O)(=O)Nc3nccs3)ccc12` [Example 409, 1-(2-METHOXY-5-(TRIFLUOROMETHYL)PYRIDIN-3-YL)-N-(THIAZOL-2-YL)ISOQUINOLINE-6-SULFONAMIDE]: 690 nM; `COc1ncc(F)cc1-c1nccc2cc(S(=O)(=O)Nc3nccs3)ccc12` [Example 410, 1-(5-FLUORO-2-METHOXYPYRIDIN-3-YL)-N-(THIAZOL-2-YL)ISOQUINOLINE-6-SULFONAMIDE]: 1670 nM.
With `COc1ncc(C)cc1-c1nccc2cc(S(=O)(=O)Nc3nccs3)ccc12` [Example 411, 1-(2-METHOXY-5-METHYLPYRIDIN-3-YL)-N-(THIAZOL-2-YL)ISOQUINOLINE-6-SULFONAMIDE], the IC50 came out at 685 nM.
Next, `COc1nc(C)ccc1-c1nccc2cc(S(=O)(=O)Nc3nccs3)ccc12` [Example 412, 1-(2-METHOXY-6-METHYLPYRIDIN-3-YL)-N-(THIAZOL-2-YL)ISOQUINOLINE-6-SULFONAMIDE]: 1030 nM; `O=S(=O)(Nc1nccs1)c1ccc2c(-c3cc(F)ccc3OC(F)F)nccc2c1` [Example 413, 1-(2-(DIFLUOROMETHOXY)-5-FLUOROPHENYL)-N-(THIAZOL-2-YL)ISOQUINOLINE-6-SULFONAMIDE]: 830 nM.
As for `O=S(=O)(Nc1nccs1)c1ccc2c(-c3ccc(F)cc3OC3CCOCC3)nccc2c1` [Example 414, 1-(4-FLUORO-2-((TETRAHYDRO-2H-PYRAN-4-YL)OXY)PHENYL)-N-(THIAZOL-2-YL)ISOQUINOLINE-6-SULFONAMIDE], the IC50 came to 7110 nM.
Next, `CC(C#N)Oc1cc(F)ccc1-c1nccc2cc(S(=O)(=O)Nc3nccs3)ccc12` (stereo not shown) [Example 415, 1-(2-(1-CYANOETHOXY)-4-FLUOROPHENYL)-N-(THIAZOL-2-YL)ISOQUINOLINE-6-SULFONAMIDE]: 1070 nM; `N#CC(F)Oc1cc(F)ccc1-c1nccc2cc(S(=O)(=O)Nc3nccs3)ccc12` (stereo not shown) [Example 416, 1-(2-(CYANOFLUOROMETHOXY)-4-FLUOROPHENYL)-N-(THIAZOL-2-YL)ISOQUINOLINE-6-SULFONAMIDE]: 1220 nM.
Turning to `NC(=O)COc1cc(F)ccc1-c1nccc2cc(S(=O)(=O)Nc3nccs3)ccc12` [Example 417, 2-(5-FLUORO-2-(6-(N-(THIAZOL-2-YL)SULFAMOYL)ISOQUINOLIN-1-YL)PHENOXY)ACETAMIDE], the IC50 is 1230 nM.
Turning to `COc1nc(OCC(C)C)ccc1-c1nccc2cc(S(=O)(=O)Nc3ccncn3)ccc12` [Example 418, 1-(6-ISOBUTOXY-2-METHOXYPYRIDIN-3-YL)-N-(PYRIMIDIN-4-YL)ISOQUINOLINE-6-SULFONAMIDE], the IC50 came to 2130 nM.
Turning to `COc1cc(C(F)(F)F)ccc1-c1nccc2cc(S(=O)(=O)Nc3ncc(Cl)s3)ccc12` [Example 420, N-(5-CHLOROTHIAZOL-2-YL)-1-(2-METHOXY-4-(TRIFLUOROMETHYL)PHENYL)ISOQUINOLINE-6-SULFONAMIDE], the IC50 was determined as 367 nM.
As to `COc1cc(C(F)(F)F)ccc1-c1nccc2cc(S(=O)(=O)Nc3cc(Cl)ncn3)ccc12` [Example 422, N-(6-CHLOROPYRIMIDIN-4-YL)-1-(2-METHOXY-4-(TRIFLUOROMETHYL)PHENYL)ISOQUINOLINE-6-SULFONAMIDE], the IC50 worked out at 835 nM.
Turning to `COc1cc(C(F)(F)F)ccc1-c1nccc2cc(S(=O)(=O)Nc3ccon3)ccc12` [Example 423], the IC50 amounted to 1340 nM.
The same measure for `COc1cc(C(F)(F)F)ccc1-c1nccc2cc(S(=O)(=O)Nc3nc(C)cs3)ccc12` [Example 424, 1-(2-METHOXY-4-(TRIFLUOROMETHYL)PHENYL)-N-(4-METHYLTHIAZOL-2-YL)ISOQUINOLINE-6-SULFONAMIDE]: 1660 nM; for `COc1cc(C(F)(F)F)ccc1-c1nccc2cc(S(=O)(=O)Nc3nnc(Cl)s3)ccc12` [Example 425, N-(5-CHLORO-1,3,4-THIADIAZOL-2-YL)-1-(2-METHOXY-4-(TRIFLUOROMETHYL)PHENYL)ISOQUINOLINE-6-SULFONAMIDE]: 2210 nM; for `COc1cc(C(F)(F)F)ccc1-c1nccc2cc(S(=O)(=O)Nc3ncc(F)cn3)ccc12` [Example 426]: 2490 nM.
For `COc1cc(C(F)(F)F)ccc1-c1nccc2cc(S(=O)(=O)Nc3ccc(F)cn3)ccc12` [Example 427, N-(5-FLUOROPYRIDIN-2-YL)-1-(2-METHOXY-4-(TRIFLUOROMETHYL)PHENYL)ISOQUINOLINE-6-SULFONAMIDE], the IC50 was determined as 4420 nM.
Turning to `COc1cc(C(F)(F)F)ccc1-c1nccc2cc(S(=O)(=O)Nc3nc(C(F)(F)F)cs3)ccc12` [Example 428, 1-(2-METHOXY-4-(TRIFLUOROMETHYL)PHENYL)-N-(4-(TRIFLUOROMETHYL)THIAZOL-2-YL)ISOQUINOLINE-6-SULFONAMIDE], the IC50 is 4570 nM.
Consider `COc1cc(C(F)(F)F)ccc1-c1nccc2cc(S(=O)(=O)Nc3cocn3)ccc12` [Example 440, 1-(2-METHOXY-4-(TRIFLUOROMETHYL)PHENYL)-N-(OXAZOL-4-YL)ISOQUINOLINE-6-SULFONAMIDE], for which the IC50 is 4100 nM.
Next, `COc1cc(C(F)F)c(OC)cc1-c1nccc2cc(S(=O)(=O)Nc3ccncn3)ccc12` [Example 453, 1-(4-(DIFLUOROMETHYL)-2,5-DIMETHOXYPHENYL)-N-(PYRIMIDIN-4-YL)ISOQUINOLINE-6-SULFONAMIDE]: 4880 nM; `COc1cc(-c2ccc(C#N)cc2)ccc1-c1nccc2cc(S(=O)(=O)Nc3ccncn3)ccc12` [Example 455, 1-(4′-CYANO-3-METHOXY-[1,1′-BIPHENYL]-4-YL)-N-(PYRIMIDIN-4-YL)ISOQUINOLINE-6-SULFONAMIDE]: 904 nM; `COc1cc(-c2nccs2)ccc1-c1nccc2cc(S(=O)(=O)Nc3ccncn3)ccc12` [Example 456, 1-(2-METHOXY-4-(THIAZOL-2-YL)PHENYL)-N-(PYRIMIDIN-4-YL)ISOQUINOLINE-6-SULFONAMIDE]: 4700 nM.
Next, `COc1cc(C(F)F)c(Cl)cc1-c1nccc2cc(S(=O)(=O)Nc3ccncn3)ccc12` [Example 457, 1-(5-CHLORO-4-(DIFLUOROMETHYL)-2-METHOXYPHENYL)-N-(PYRIMIDIN-4-YL)ISOQUINOLINE-6-SULFONAMIDE]: 828 nM; `COc1cc(-c2ccc(C)o2)ccc1-c1nccc2cc(S(=O)(=O)Nc3ccncn3)ccc12` [Example 461]: 1780 nM; `COc1cc(Oc2ccccc2F)ccc1-c1nccc2cc(S(=O)(=O)Nc3ccncn3)ccc12` [Example 465, 1-(4-(2-FLUOROPHENOXY)-2-METHOXYPHENYL)-N-(PYRIMIDIN-4-YL)ISOQUINOLINE-6-SULFONAMIDE]: 567 nM.
On to `COc1cc(-c2cccnc2F)ccc1-c1nccc2cc(S(=O)(=O)Nc3ccncn3)ccc12` [Example 473, 1-(4-(2-FLUOROPYRIDIN-3-YL)-2-METHOXYPHENYL)-N-(PYRIMIDIN-4-YL)ISOQUINOLINE-6-SULFONAMIDE], for which the IC50 worked out at 1360 nM.
With `COc1cc(-c2ccnc(F)c2)ccc1-c1nccc2cc(S(=O)(=O)Nc3ccncn3)ccc12` [Example 474, 1-(4-(2-FLUOROPYRIDIN-4-YL)-2-METHOXYPHENYL)-N-(PYRIMIDIN-4-YL)ISOQUINOLINE-6-SULFONAMIDE], the IC50 was determined as 2610 nM.
Next, `COc1cc(-c2cncc(F)c2)ccc1-c1nccc2cc(S(=O)(=O)Nc3ccncn3)ccc12` [Example 475, 1-(4-(5-FLUOROPYRIDIN-3-YL)-2-METHOXYPHENYL)-N-(PYRIMIDIN-4-YL)ISOQUINOLINE-6-SULFONAMIDE]: 1880 nM.
